Data reported in US7476755B2, “Therapeutic compounds” (Allergan, Inc., priority 2006, dated 2009).

Legend:
hEP2/Gqs5 = molecular target: T1, hEP2/Gqs5 (Homo sapiens, UniProt P43116); assay: FLIPR calcium signal, EP2; format: cell-based; conditions: HEK-293(EBNA) cells, read-out: EP2 Ca2+ EC50
T1 construct: expressed in transfected cells
Method: HEK-293(EBNA) cells, stably expressing one type or subtype of recombinant human prostaglandin receptors (prostaglandin receptors expressed: hDP/Gqs5; hEP2; hEP2/Gqs5; hEP3A/Gqi5; hEP4/Gqs5; hFP; hIP; hTP), were cultured in 100 mm culture dishes in high-glucose DMEM medium containing 10% fetal bovine serum, 2 mM I-glutamine, 250 μg/ml geneticin (G418) and 200 μg/ml hygromycin B as selection markers, and 100 units/ml penicillin G, 100 μg/ml streptomycin and 0.25 μg/ml amphotericin B.
Cells were seeded at a density of 5×10^4 cells per well in Biocoat® Poly-D-lysine-coated black-wall, clear-bottom 96-well plates (Becton-Dickinson) and allowed to attach overnight in an incubator at 37° C. Cells were then washed two times with HBSS-HEPES buffer (Hanks Balanced Salt Solution without bicarbonate and phenol red, 20 mM HEPES, pH 7.4) using a Denley Cellwash plate washer (Labsystems). […]
Cells were excited with an Argon laser at 488 nm, and emission was measured through a 510-570 nm bandwidth emission filter (FLIPR™, Molecular Devices, Sunnyvale, Calif.). […] The peak increase in fluorescence intensity was recorded for each well. […] The peak fluorescence change in each drug-containing well was then expressed relative to the controls. […]

EP4 = molecular target: T2, EP4 (Homo sapiens, UniProt P35408); assay: Radioligand binding, EP4; conditions: HEK-293 cells expressing EP4, [3H]PGE2; read-out: EP4 Ki EC50
T2 construct: expressed in transfected cells; membrane fraction
T2 sequence (P35408 whole entry): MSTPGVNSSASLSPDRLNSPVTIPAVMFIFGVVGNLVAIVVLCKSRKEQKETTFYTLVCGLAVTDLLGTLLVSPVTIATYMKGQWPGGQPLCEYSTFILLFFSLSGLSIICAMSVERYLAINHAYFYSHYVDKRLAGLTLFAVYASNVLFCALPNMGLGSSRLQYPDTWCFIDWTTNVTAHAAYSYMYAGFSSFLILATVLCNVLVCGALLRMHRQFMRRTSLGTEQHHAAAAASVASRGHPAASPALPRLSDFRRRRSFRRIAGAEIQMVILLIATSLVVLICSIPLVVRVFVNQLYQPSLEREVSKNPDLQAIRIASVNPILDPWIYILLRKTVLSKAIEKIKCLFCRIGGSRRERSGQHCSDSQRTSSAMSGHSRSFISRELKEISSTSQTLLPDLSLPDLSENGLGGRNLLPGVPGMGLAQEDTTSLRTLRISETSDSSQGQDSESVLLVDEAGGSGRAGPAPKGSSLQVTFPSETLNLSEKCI
Method: HEK-293 cells stably expressing the human or feline FP receptor, or EP1, EP2, or EP4 receptors were washed with TME buffer, scraped from the bottom of the flasks, and homogenized for 30 sec using a Brinkman PT 10/35 polytron. TME buffer was added to achieve a final 40 ml volume in the centrifuge tubes (the composition of TME is 100 mM TRIS base, 20 mM MgCl2, […]; 10N HCl is added to achieve a pH of 7.4).
The cell homogenate was centrifuged at 19000 r.p.m. for 20 min at 4° C. using a Beckman Ti-60 rotor. The resultant pellet was resuspended in TME buffer to give a final 1 mg/ml protein concentration, as determined by Biorad assay. Radioligand binding competition assays vs. [^3H-]17-phenyl PGF2n (5 nM) were performed in a 100 μl volume for 60 min. Binding reactions were started by adding plasma membrane fraction. The reaction was terminated by the addition of 4 ml ice-cold TRIS-HCl buffer and rapid filtration through glass fiber GF/B filters using a Brandel cell harvester. The filters were washed 3 times with ice-cold buffer and oven dried for one hour.
[^3H-] PGE2 (specific activity 180 Ci mmol) was used as the radioligand for EP receptors. [^3H] 17-phenyl PGF2α was employed for FP receptor binding studies. […] 17-phenyl PGF2α and non-specific binding determined with 10^−5M of unlabeled PGE2, or 17-phenyl PGF2α, according to receptor subtype studied.

EP2 [1] = molecular target: T3, EP2 (Homo sapiens, UniProt P43116); assay: Competition binding, human EP2 receptors ([3H]PGE2); set-up: expressed in transfected cells; conditions: HEK 293 cells stably expressing human EP2, [3H]PGE2
T3 sequence (P43116 whole entry): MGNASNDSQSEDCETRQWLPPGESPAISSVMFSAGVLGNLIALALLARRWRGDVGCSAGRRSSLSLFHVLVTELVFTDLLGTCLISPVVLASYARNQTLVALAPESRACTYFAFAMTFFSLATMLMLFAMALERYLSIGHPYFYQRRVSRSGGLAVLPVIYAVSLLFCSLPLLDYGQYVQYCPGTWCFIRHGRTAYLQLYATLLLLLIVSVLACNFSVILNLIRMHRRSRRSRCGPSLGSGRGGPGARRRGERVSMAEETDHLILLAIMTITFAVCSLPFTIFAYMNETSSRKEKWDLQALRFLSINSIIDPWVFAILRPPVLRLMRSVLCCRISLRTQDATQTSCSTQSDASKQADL
Method: Competition binding experiments were performed in a medium containing Hank's balanced salt solution, Hepes 20 mM, pH 7.3, membranes (˜60 μg protein) or 2×10^5 cells from HEK 293 cells stably expressing human EP2 receptors, [^3H]PGE2 (10 nM) and various concentrations of test compounds in a total volume of 300 μl. Reaction mixtures were incubated at 23° C. for 60 min, and were filtered over Whatman GF/B filters under vacuum. Filters were washed three times with 5 ml ice-cold buffer containing 50 mM Tris/HCl (pH 7.3). Non-specific binding was estimated in the presence of excess unlabeled PGE2 (10 μM). Binding data fitted to the binding model for a single class of binding sites, using nonlinear regression analysis. IC50 values thus obtained were converted to Ki using the equation of Ki=(IC50/(1+[L]/KD) where [L] represents PGE2 concentration (10 nM) and KD the dissociation constant for [^3H]PGE2 at human EP2 receptors (40 nM). […]
The cell homogenate was centrifuged at 19000 r.p.m. for 20 min at 4° C. using a Beckman Ti-60 rotor. The resultant pellet was resuspended in TME buffer to give a final 1 mg/ml protein concentration, as determined by Biorad assay. […]
[^3H-] […] 17-phenyl PGF2α and non-specific binding determined with 10^−5M of unlabeled PGE2, or 17-phenyl PGF2α, according to receptor subtype studied.

EP2 [2] = molecular target: T3, EP2; assay: cAMP assay, EP2; format: cell-based; set-up: expressed in transfected cells; host or cells: HEK-EBNA cells; conditions: HEK-EBNA cells expressing EP2
Method: A 384-well drug plate was prepared to contain 6 test compounds, PGE2 and cAMP in 16 serial dilutions in triplicate, using a Biomek station. HEK-EBNA cells expressing a target PG receptor subtype (EP2 or EP4) were suspended in a stimulation buffer (HBSS, 0.1% BSA, 0.5 mM IBMX and 5 mM HEPES, pH 7.4) in a density of 10^4 cells/5 μl. The reaction was initiated by mixing […] drug dilutions with 5 μl of HEK-EBNA cells in a well, carried out for 30 min at room temperature, and followed by the addition of 5 μl anti-cAMP acceptor beads in the control buffer with Tween-20 (25 mM NaCl, 0.03% Tween-20, 5 mM HEPES, pH7.4). After 30 min in the dark at room temperature, the mixtures were incubated with 15 μl biotinylated-cAMP/strepavidin donor beads in Lysis/Detection buffer (0.1% BSA, 0.3% Tween-20 and 5 mM HEPES, pH7.4) for 45 min at the room temperature. Fluorescence changes were read using a Fusion-alpha HT microplate reader.

In vivo testing, dog IOP = conditions: Conc. 0.1% (g/100 mL)
Source text: (§1) In vivo testing done as described in U.S. patent application Ser. No. 11/009,298 gave the results in Table 2 below.

[3] = In vivo testing, dog hyperemia; conditions: Conc. 0.1% (g/100 mL)
Source text: as §1

[4] = In vivo testing, monkey IOP; conditions: Conc. 0.1% (g/100 mL)
Source text: as §1

[5] = In vivo testing, rabbit hyperemia; conditions: Conc. 0.1% (g/100 mL)
Source text: as §1

T1 sequence (P43116 whole entry): as above

Row | SMILES | EC50 (hEP2/Gqs5) [nM] | Ki (EP4) [nM] | Ki (EP2 [1]) [nM] | EC50 (EP2 [2]) [nM] | DOG Max. IOP (%) (In vivo testing, dog IOP) | DOG Max. hyperemia [3] | MONKEY Max. IOP (%) [4] [%] | RABBIT Max. hyperemia [5]
1 | CCCCCC(=O)c1ccc([C@@H]2[C@@H](C/C=C\CCCC(=O)O)[C@H](Cl)C[C@H]2O)cc1 [drawing 41] | 31 | 2810 | 111 | 9 | – | – | – | –
2 | CCCCCC(=O)c1ccc([C@@H]2[C@@H](C/C=C\CCCC(=O)OC(C)C)[C@H](Cl)C[C@H]2O)cc1 [Entry 2] | – | – | – | – | −37 | 0.8 | 20 | 0
3 | CCCCCC(=O)c1ccc([C@@H]2[C@@H](C/C=C\CCCC(=O)O)[C@H](Cl)C[C@H]2O)cc1 [Entry 1] | – | – | – | – | −50 | 2.0 | 31 | –
